These results are taken from ChEMBL document CHEMBL1759980, “Aza-annulation on the 16-dehydropregnenolone, via tandem intermolecular aldol process and intramolecular Michael addition” (Bioorg Med Chem Lett, 2011).

Test [1] addresses T1, Dipeptidyl peptidase 4 (Homo sapiens, UniProt P27487). Description: Inhibition of human DPP-4 assessed as cleavage of substrate using H-Gly-Pro-pNA chromogenic substrate after 10 mins by double beam spectrophotometer.
Target sequence in this assay (P27487 whole entry): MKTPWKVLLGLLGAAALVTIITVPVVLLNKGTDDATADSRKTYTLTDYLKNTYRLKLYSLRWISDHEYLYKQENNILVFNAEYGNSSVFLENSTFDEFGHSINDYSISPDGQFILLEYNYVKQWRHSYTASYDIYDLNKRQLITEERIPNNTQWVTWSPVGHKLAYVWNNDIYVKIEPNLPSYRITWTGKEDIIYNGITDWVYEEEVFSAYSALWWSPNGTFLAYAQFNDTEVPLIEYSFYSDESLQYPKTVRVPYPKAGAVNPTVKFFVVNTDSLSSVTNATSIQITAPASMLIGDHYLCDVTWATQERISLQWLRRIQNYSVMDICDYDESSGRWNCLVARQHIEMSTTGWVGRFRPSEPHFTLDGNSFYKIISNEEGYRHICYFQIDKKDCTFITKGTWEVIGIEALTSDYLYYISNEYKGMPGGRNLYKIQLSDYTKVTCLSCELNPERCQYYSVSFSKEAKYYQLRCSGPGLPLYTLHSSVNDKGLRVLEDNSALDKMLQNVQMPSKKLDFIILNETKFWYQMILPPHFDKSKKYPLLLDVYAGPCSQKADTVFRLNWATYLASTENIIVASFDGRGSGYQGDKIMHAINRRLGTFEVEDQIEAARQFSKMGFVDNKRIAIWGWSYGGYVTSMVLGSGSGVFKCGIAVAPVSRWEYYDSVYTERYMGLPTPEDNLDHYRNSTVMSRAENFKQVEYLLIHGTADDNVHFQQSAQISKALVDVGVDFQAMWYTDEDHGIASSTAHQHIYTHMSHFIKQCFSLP
Test [2] deals with T1, Dipeptidyl peptidase 4. Description: Inhibition of human DPP-4 assessed as cleavage of substrate using H-Gly-Pro-pNA chromogenic substrate at 10 uM after 10 mins by double beam spectrophotometer.
Target sequence in this assay (P27487 whole entry, looked up): as the sequence (P27487 whole entry) above

In general, IC50 refers to the concentration that gives 50% inhibition. A word on the inhibition: it is the drop in the measured response relative to a control, in per cent. For `CC(=O)[C@H]1C(NCc2ccccc2)C[C@H]2[C@@H]3CC=C4C[C@@H](O)CC[C@]4(C)[C@H]3CC[C@]12C` (stereo not given in full), the IC50 in test [1] came out at 21.3 µM. Further, in test [2], the inhibition came to 28.4%.
As to `CCCN1C(c2ccc(C(C)C)cc2)CC(=O)[C@H]2C1C[C@H]1[C@@H]3CC=C4C[C@@H](O)CC[C@]4(C)[C@H]3CC[C@]21C` (stereo not given in full), in test [1], the half-maximal inhibitory concentration (IC50) worked out at 29.1 µM. Besides, the inhibition in test [2] stood at 19.1%.
For `COc1ccc(/C=C/C(=O)C2=CC[C@H]3[C@@H]4CC=C5C[C@@H](O)CC[C@]5(C)[C@H]4CC[C@]23C)cc1OC` the same measures were 26.2 µM and 24.1%.
For `CCCN1C(c2ccc(OC)cc2)CC(=O)[C@H]2C1C[C@H]1[C@@H]3CC=C4C[C@@H](O)CC[C@]4(C)[C@H]3CC[C@]21C` (stereo not given in full) the same measures were 32.7 µM and 20.4%.
Consider `CC(=O)O[C@H]1CC[C@@]2(C)C(=CC[C@@H]3[C@@H]2CC[C@]2(C)C(C(C)=O)=CC[C@@H]32)C1`, for which, in test [1], the IC50 amounted to 35.6 µM. Besides, the inhibition in test [2] was 17.3%.
